Reference: patent US11198713B2, “Agents modulating beta-catenin functions and methods thereof” (FOG PHARMACEUTICALS, INC., priority 2017, dated 2021)
≈ marks a conversion by molar mass, not a printed value. Read-outs that look alike come from different tables or passages of the source. Numbered stars: 1 amine (or outer) side, 2 acyl side, 3 side chain; on linkers, the order of the positions; unused ones are H or OH. Bridge positions count the residues as written; N and C are the ends. Square brackets hold non-standard residues; d marks the D form. Primed or numbered codes have the meaning given here. R6 = (R)-2-(5-hexenyl)alanine, C=CCCCC[C@@](C)(N[*:1])C(=O)[*:2]; MA = Monomer A (Az), N-Alloc azetidine stapling residue; S7 = C[C@@](CCCCCC=[*:3])(N[*:1])C(=O)[*:2]; MB(7) = not defined here

T1: biotinylated beta-catenin (Homo sapiens, UniProt P35222)
T1 sequence (P35222 1-781): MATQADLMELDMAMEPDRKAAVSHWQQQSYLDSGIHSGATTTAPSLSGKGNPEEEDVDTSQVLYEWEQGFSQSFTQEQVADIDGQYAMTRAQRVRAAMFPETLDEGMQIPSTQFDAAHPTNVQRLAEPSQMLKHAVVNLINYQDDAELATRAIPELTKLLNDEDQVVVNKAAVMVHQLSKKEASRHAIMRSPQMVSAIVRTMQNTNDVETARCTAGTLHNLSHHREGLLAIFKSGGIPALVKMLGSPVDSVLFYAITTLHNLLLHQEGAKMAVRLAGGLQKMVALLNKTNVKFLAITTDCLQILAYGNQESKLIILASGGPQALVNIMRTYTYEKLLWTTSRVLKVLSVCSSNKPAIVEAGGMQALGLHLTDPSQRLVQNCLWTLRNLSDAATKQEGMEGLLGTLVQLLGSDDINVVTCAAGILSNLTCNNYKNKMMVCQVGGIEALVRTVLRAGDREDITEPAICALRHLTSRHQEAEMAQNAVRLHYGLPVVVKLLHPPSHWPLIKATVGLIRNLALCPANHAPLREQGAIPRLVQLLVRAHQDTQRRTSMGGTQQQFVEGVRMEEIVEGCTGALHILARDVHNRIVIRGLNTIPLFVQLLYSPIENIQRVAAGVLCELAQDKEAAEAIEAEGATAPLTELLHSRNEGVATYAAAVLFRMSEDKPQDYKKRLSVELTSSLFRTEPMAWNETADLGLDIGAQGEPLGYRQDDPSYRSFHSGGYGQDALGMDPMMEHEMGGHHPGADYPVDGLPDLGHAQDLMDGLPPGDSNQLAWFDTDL

T2: full-length beta-catenin (Axin site) (Homo sapiens, UniProt P35222)
T2 construct: 15 nM full-length beta-catenin, 20 nM FITC labeled peptide in buffer
T2 sequence (P35222 1-781): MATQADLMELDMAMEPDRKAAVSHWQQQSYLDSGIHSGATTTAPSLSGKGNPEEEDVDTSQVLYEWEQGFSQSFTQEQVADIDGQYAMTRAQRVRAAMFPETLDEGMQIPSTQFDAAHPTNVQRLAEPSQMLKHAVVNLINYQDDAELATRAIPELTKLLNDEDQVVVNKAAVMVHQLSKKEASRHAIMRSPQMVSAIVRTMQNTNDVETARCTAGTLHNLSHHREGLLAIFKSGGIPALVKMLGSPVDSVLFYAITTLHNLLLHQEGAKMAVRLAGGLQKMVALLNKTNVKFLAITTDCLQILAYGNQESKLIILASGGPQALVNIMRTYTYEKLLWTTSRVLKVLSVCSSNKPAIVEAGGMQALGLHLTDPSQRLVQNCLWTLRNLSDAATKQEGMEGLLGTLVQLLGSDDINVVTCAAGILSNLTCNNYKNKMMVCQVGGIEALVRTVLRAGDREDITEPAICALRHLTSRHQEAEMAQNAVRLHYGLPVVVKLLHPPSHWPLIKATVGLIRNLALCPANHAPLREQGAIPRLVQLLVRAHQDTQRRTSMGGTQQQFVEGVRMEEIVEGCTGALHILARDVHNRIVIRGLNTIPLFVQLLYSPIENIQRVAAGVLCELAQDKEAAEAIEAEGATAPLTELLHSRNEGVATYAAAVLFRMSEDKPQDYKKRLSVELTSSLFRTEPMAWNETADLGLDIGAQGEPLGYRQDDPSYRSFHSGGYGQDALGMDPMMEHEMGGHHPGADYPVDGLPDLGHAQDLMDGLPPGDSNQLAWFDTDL

T3: full-length beta-catenin (UniProt P35222 2-781, limits assumed)
T3 construct: mature; also called full-length ß-Catenin; β-catenin
T3 sequence (looked up): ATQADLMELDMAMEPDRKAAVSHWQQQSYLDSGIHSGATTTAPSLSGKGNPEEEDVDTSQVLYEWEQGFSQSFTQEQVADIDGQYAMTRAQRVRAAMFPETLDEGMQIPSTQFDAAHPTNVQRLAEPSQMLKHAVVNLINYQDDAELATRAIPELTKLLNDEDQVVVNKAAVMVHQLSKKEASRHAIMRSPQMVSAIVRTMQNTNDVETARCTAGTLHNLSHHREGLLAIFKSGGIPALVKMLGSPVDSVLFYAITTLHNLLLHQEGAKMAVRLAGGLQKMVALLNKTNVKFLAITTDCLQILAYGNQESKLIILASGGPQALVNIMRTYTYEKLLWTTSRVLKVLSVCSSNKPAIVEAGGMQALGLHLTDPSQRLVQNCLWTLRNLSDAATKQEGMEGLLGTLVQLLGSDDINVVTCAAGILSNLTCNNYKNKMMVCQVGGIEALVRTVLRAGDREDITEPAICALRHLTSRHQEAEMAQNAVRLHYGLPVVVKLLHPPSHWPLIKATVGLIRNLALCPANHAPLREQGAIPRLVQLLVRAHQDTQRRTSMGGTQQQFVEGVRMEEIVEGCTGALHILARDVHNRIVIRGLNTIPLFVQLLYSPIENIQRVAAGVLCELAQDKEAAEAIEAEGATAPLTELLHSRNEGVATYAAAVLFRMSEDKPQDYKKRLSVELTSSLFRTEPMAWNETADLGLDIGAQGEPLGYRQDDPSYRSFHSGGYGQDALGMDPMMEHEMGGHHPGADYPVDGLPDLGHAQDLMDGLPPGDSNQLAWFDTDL


Key:
[1] = target: T1, biotinylated beta-catenin; test: Surface Plasmon Resonance (Biacore); assay type: binding
Protocol: Additionally or alternatively, binding to beta-catenin may be measured by Surface Plasmon Resonance. In an exemplary assay, approximately 6 nmol dried peptide diluted in buffer (50 mM Tris pH 8.0, 300 mM NaCl, 2% glycerol, 0.5 mM TCEP, 0.5 mM EDTA, 0.005% Tween-20, 1 mg/mL CM Dextran, 0.02% w/v sodium azide) was assayed on a Biacore X100 using the Biacore Biotin CAPture Kit (GE Healthcare) and biotinylated beta-catenin. Results were analyzed using the Biacore X100 Evaluation Software. […] FPO217c (Isomer 2) bound to the armadillo domain of β-catenin with a Kd of 2 nM.

[2] = Solubility in DPBS (A280 of supernatant); assay type: physicochemical; settings: DPBS
Outline: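 Dried peptide reconstituted in DPBS in triplicate, vortexed, sonicated and centrifuged. Supernatant A280 measured; concentration calculated using the tryptophan extinction coefficient.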

[3] = target: T2, full-length beta-catenin (Axin site); test: Competition fluorescence polarization assay (Axin site probe); assay type: binding; settings: competition fluorescence polarization, Table 2; read-out: in vitro FP EC50
Outline: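 Competition FP: 15 nM full-length β-catenin pre-incubated 5 min with 20 nM FITC-labelled stapled Axin-site peptide, then titrated peptide added (3-fold series from 5 μM) for 15 min in the dark. Buffer 50 mM Tris pH 8.0, 250 mM NaCl, 2% glycerol, 0.5 mM EDTA; duplicate reads.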

[4] = target: T3, full-length beta-catenin; test: competition FP; amino staple (cyclic)
Protocol: In some embodiments, a competition fluorescence polarization assay is used to assess binding of provided compounds to beta-catenin. In an exemplary procedure, solutions of provided compounds, e.g., provided stapled peptides, were prepared in a buffer (e.g., 50 mM Tris pH 8.0, 250 mM NaCl, 2% glycerol, 0.5 mM EDTA, 0.02% w/v sodium azide) using a 3-fold serial dilution from 5 µM. Probe solution (15 nM full-length ß-Catenin, 20 nM FITC labeled peptide in buffer) was prepared and incubated for a period of time, e.g., 5 minutes, and the a volume, e.g., 40 µL per well plated in suitable plate, e.g., a black polystyrene 384-well plate (Corning). Equal volume of the serial diluted peptide was added to the plate and incubated protected from light for 15 minutes prior to read. Reads were performed on a Spectramax M5 (Molecular Devices) in duplicate. Suitable probe was FITC-PEG1-PQ-S5-ILD-S5-HVRRVWR (SEQ ID NO: 1) (hydrocarbon staple formed by two S5 via olefin metathesis) and/or FITC-bA-PQ-S5-ILD-S5-HVRRVWR (SEQ ID NO: 3) (hydrocarbon staple formed by two S5 via olefin metathesis). […] Another peptide, FPO217c (Ac-AR_8ILDAHIM$B5$RVW (SEQ ID NO: 280), with N-terminal proline removed and valine replaced with isoleucine compared to FP0025c) was prepared.

[5] = target: T3, full-length beta-catenin; test: competition FP, grade of FP EC50 (+: 500-5000 nM)
Outline: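 Compound 3-fold serially diluted from 5 µM in Tris pH 8.0, 250 mM NaCl buffer, added to premixed 15 nM full-length β-catenin and 20 nM FITC-labelled stapled axin-site peptide probe. Incubated 15 min in the dark, polarization read in duplicate.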

| Molecule | Kd ([1]; Table 2, read-out: Kd by SPR) | Kd ([1]; Table 3 Part A, read-out: Binding Kd) | solubility ([2]; Table 2, read-out: Solubility) | solubility ([2]; Table 3 Part A, read-out: Solubility in DPBS) | EC50 [3] | EC50 [4] | FP EC50 [5] |
| --- | --- | --- | --- | --- | --- | --- | --- |
| Ac-PQ[MA]ILD[R6]HVRRVWR-NH2 (staple 3-7; also: amino staple: CO2 extruded from MA carbamate staple with Pd(PPh3)4, also called FP-0725 (amino staple)) [FP0725a] |  |  |  |  |  | 580 nM | 500 to 5000 nM |
| Ac-PQ[S7]ILD[MB(7)]HVRRVWR-NH2 (staple 3-7; reading uncertain; also: amino staple: CO2 extruded from carbamate staple with Pd(PPh3)4, also called FP-0763 (amino staple)) [FP0763a] |  |  |  |  |  | 1110 nM | 500 to 5000 nM |
| Ac-PQ[R6]ILD[MA]HVRRVWR-NH2 (staple 3-7; also: amino staple: CO2 extruded from carbamate staple with Pd(PPh3)4, also called FP-0735 (amino staple)) [FP0735a] |  |  |  |  |  | 2360 nM | 500 to 5000 nM |

More lines, now with the values ahead:

| Kd ([1]; Table 2, read-out: Kd by SPR) | Kd ([1]; Table 3 Part A, read-out: Binding Kd) | solubility ([2]; Table 2, read-out: Solubility) | solubility ([2]; Table 3 Part A, read-out: Solubility in DPBS) | EC50 [3] | EC50 [4] | FP EC50 [5] | Molecule |
| --- | --- | --- | --- | --- | --- | --- | --- |
| 3 nM | 3 nM | 32 µM (≈ 49.9 µg/mL) | 42 µM (≈ 65.4 µg/mL) | < 100 nM |  |  | CC[C@H](C)[C@@H]1NC(=O)[C@H](Cc2c[nH]cn2)NC(=O)[C@H](C)NC(=O)[C@H](CC(=O)O)NC(=O)[C@H](CC(C)C)NC(=O)[C@H]([C@@H](C)CC)NC(=O)[C@](C)(NC(=O)[C@H](C)NC(C)=O)CCC=CCOC(=O)N(C)CCC[C@@](C)(C(=O)N[C@@H](CCCNC(=N)N)C(=O)N[C@H](C(=O)N[C@@H](Cc2c[nH]c3ccccc23)C(N)=O)C(C)C)NC1=O [FP0509c, Ac-A-R4-I-L-D-A-H-I-MH-R-V-W-NH2] |
| 14 nM |  |  |  | 100 to 500 nM |  |  | CC[C@H](C)[C@@H]1NC(=O)[C@@](C)(NC(=O)[C@H](CCC(N)=O)NC(=O)[C@@H]2CCCN2C(C)=O)CCCC=CCCC[C@@](C)(C(=O)N[C@@H](Cc2c[nH]cn2)C(=O)N[C@H](C(=O)N[C@@H](CCCNC(=N)N)C(=O)N[C@@H](CCCNC(=N)N)C(=O)N[C@H](C(=O)N[C@@H](Cc2c[nH]c3ccccc23)C(=O)N[C@@H](CCCNC(=N)N)C(N)=O)C(C)C)C(C)C)NC(=O)[C@H](CC(=O)O)NC(=O)[C@H](CC(C)C)NC1=O [FP0787s, Ac-P-Q-S5-I-L-D-S5-H-V-R-R-V-W-R-NH2] |
